Reference: patent publication US12077503B2, “Substituted cyclic amides and their use as herbicides” (FMC CORPORATION, priority 2015, dated 2024)

Legend:
Type in all cases: in vivo
Kochia (Kochia scoparia) [1] = assay: Test A preemergence; details: Bassia scoparia, pre-emergence, 240 h, read-out: Plant response rating, Kochia
Method in brief: (§1)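 Each rating is a visual injury score from 0 to 100 given about 10 d after treatment, judged against untreated controls kept alongside in the greenhouse. In loam soil–sand blend, seeds got a preemergence directed soil spray, while postemergence plants were 2 to 10 cm tall at spraying.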

[2] = test system: barnyardgrass (Echinochloa crus-galli); assay: Test A preemergence; details: Echinochloa crus-galli, pre-emergence, 240 h, read-out: Plant response rating, Barnyardgrass
Method in brief: as §1

[3] = test system: giant foxtail (Setaria faberii); assay: Test A preemergence; details: Setaria faberi, pre-emergence, 240 h, read-out: Plant response rating, Foxtail, Giant
Method in brief: as §1

[4] = test system: pigweed (Amaranthus retroflexus); assay: Test A preemergence; details: Amaranthus retroflexus, pre-emergence, 240 h, read-out: Plant response rating, Pigweed
[5] = test system: ragweed (common ragweed, Ambrosia elatior); assay: Test A preemergence; details: Ambrosia artemisiifolia, pre-emergence, 240 h, read-out: Plant response rating, Ragweed
Method in brief: as §1

[6] = test system: ryegrass, Italian (Italian ryegrass, Lolium multiflorum); assay: Test A preemergence; details: Lolium multiflorum, pre-emergence, 240 h, read-out: Plant response rating, Ryegrass, Italian
Method in brief: as §1

[7] = test system: Galium (catchweed bedstraw, Galium aparine); assay: Test A postemergence; details: Galium, post-emergence, 240 h
Method in brief: as §1

Kochia (Kochia scoparia) [8] = assay: Test A postemergence; details: Bassia scoparia, post-emergence, 240 h
Method in brief: as §1

[9] = test system: barnyardgrass (Echinochloa crus-galli); assay: Test A postemergence; details: Echinochloa crus-galli, post-emergence, 240 h
Method in brief: as §1

[10] = test system: blackgrass (Alopecurus myosuroides); assay: Test A postemergence; details: Alopecurus myosuroides, post-emergence, 240 h
Method in brief: as §1

corn (Zea mays) = assay: Test A postemergence; details: Zea mays, post-emergence, 240 h
Method in brief: as §1

[11] = test system: giant foxtail (Setaria faberii); assay: Test A postemergence; details: Setaria faberi, post-emergence, 240 h
Method in brief: as §1

[12] = test system: pigweed (Amaranthus retroflexus); assay: Test A postemergence; details: Amaranthus retroflexus, post-emergence, 240 h
Method in brief: as §1

[13] = test system: ragweed (common ragweed, Ambrosia elatior); assay: Test A postemergence; details: Ambrosia artemisiifolia, post-emergence, 240 h
Method in brief: as §1

[14] = test system: wheat (Triticum aestivum); assay: Test A postemergence; details: Triticum aestivum, post-emergence, 240 h
Method in brief: as §1

[15] = 125 g ai/ha, preemergence, visual rating after approx. 10 d, 0 to 100 scale where 0 is no effect and 100 is complete control
[16] = Preemergence, 31 g ai/ha, 0 to 100 scale (0 no effect, 100 complete control)

CN1CC[C@H](c2cccc(OC(F)(F)F)c2)[C@@H](C(=O)Nc2ccccc2C(F)(F)F)C1=O [Compound 806]
0%: pest or weed control at 125 g/ha (Kochia (Kochia scoparia) [1]; [15]) | pest or weed control at 31 g/ha (Kochia (Kochia scoparia) [1]; [16]) | pest or weed control at 125 g/ha [2, 15] | pest or weed control at 31 g/ha [2, 16] | pest or weed control at 125 g/ha [3, 15] | pest or weed control at 31 g/ha [3, 16] | pest or weed control at 125 g/ha [4, 15] | pest or weed control at 31 g/ha [4, 16] | pest or weed control at 125 g/ha [5, 15] | pest or weed control at 31 g/ha [5, 16] | pest or weed control at 125 g/ha [6, 15] | pest or weed control at 31 g/ha [6, 16] | pest or weed control at 125 g/ha ([7]; 125 g ai/ha, postemergence, visual injury rating after approximately 10 d, read-out: Galium plant response rating (0 to 100 scale, 0 no effect, 100 complete control)) | pest or weed control at 31 g/ha ([7]; Postemergence, 31 g ai/ha, visual injury after approx. 10 d, 0 to 100 scale, 0 no effect, 100 complete control, read-out: Plant response rating, Galium) | pest or weed control at 125 g/ha (Kochia (Kochia scoparia) [8]; 125 g ai/ha, postemergence, visual injury rating after approximately 10 d, read-out: Kochia plant response rating (0 to 100 scale, 0 no effect, 100 complete control)) | pest or weed control at 31 g/ha (Kochia (Kochia scoparia) [8]; Postemergence, 31 g ai/ha, visual injury after approx. 10 d, 0 to 100 scale, 0 no effect, 100 complete control, read-out: Plant response rating, Kochia) | pest or weed control at 125 g/ha ([9]; 125 g ai/ha, postemergence, visual injury rating after approximately 10 d, read-out: Barnyardgrass plant response rating (0 to 100 scale, 0 no effect, 100 complete control)) | pest or weed control at 31 g/ha ([9]; Postemergence, 31 g ai/ha, visual injury after approx. 10 d, 0 to 100 scale, 0 no effect, 100 complete control, read-out: Plant response rating, Barnyardgrass) | pest or weed control at 125 g/ha ([10]; 125 g ai/ha, postemergence, visual injury rating after approximately 10 d, read-out: Blackgrass plant response rating (0 to 100 scale, 0 no effect, 100 complete control)) | pest or weed control at 31 g/ha ([10]; Postemergence, 31 g ai/ha, visual injury after approx. 10 d, 0 to 100 scale, 0 no effect, 100 complete control, read-out: Plant response rating, Blackgrass) | plant injury at 125 g/ha (corn (Zea mays); 125 g ai/ha, postemergence, visual injury rating after approximately 10 d, read-out: Corn plant response rating (0 to 100 scale, 0 no effect, 100 complete control)) | Corn plant response rating (crop injury, 0 = no effect, 100 = complete kill) at 31 g/ha (corn (Zea mays); Postemergence, 31 g ai/ha, visual injury after approx. 10 d, 0 to 100 scale, 0 no effect, 100 complete control) | pest or weed control at 125 g/ha ([11]; 125 g ai/ha, postemergence, visual injury rating after approximately 10 d, read-out: Foxtail, Giant plant response rating (0 to 100 scale, 0 no effect, 100 complete control)) | pest or weed control at 31 g/ha ([11]; Postemergence, 31 g ai/ha, visual injury after approx. 10 d, 0 to 100 scale, 0 no effect, 100 complete control, read-out: Plant response rating, Foxtail, Giant) | pest or weed control at 125 g/ha ([12]; 125 g ai/ha, postemergence, visual injury rating after approximately 10 d, read-out: Pigweed plant response rating (0 to 100 scale, 0 no effect, 100 complete control)) | pest or weed control at 31 g/ha ([12]; Postemergence, 31 g ai/ha, visual injury after approx. 10 d, 0 to 100 scale, 0 no effect, 100 complete control, read-out: Plant response rating, Pigweed) | pest or weed control at 125 g/ha ([13]; 125 g ai/ha, postemergence, visual injury rating after approximately 10 d, read-out: Ragweed plant response rating (0 to 100 scale, 0 no effect, 100 complete control)) | pest or weed control at 31 g/ha ([13]; Postemergence, 31 g ai/ha, visual injury after approx. 10 d, 0 to 100 scale, 0 no effect, 100 complete control, read-out: Plant response rating, Ragweed) | plant injury at 125 g/ha ([14]; 125 g ai/ha, postemergence, visual injury rating after approximately 10 d, read-out: Wheat plant response rating (0 to 100 scale, 0 no effect, 100 complete control)) | plant injury at 31 g/ha ([14]; Postemergence, 31 g ai/ha, visual injury after approx. 10 d, 0 to 100 scale, 0 no effect, 100 complete control, read-out: Plant response rating, Wheat)
